ChEMBL document CHEMBL1268934, “Design, synthesis, and subtype selectivity of 3,6-disubstituted β-carbolines at Bz/GABA(A)ergic receptors. SAR and studies directed toward agents for treatment of alcohol abuse” (Bioorg Med Chem, 2010)

How the values were obtained:
[1] = target: T1, GABA A receptor alpha-4/beta-3/gamma-2 (Homo sapiens, UniProt P18507+P28472+P48169); assay: Agonist activity at human recombinant GABAA alpha-4-beta-3-gamma-2 receptor expressed in Xenopus oocytes at 1 to 10 uM by patch clamp technique; format: functional, cell-based; conditions: Oocyte
[2] = target: GABA-A receptor; alpha-3/beta-3/gamma-2 (Homo sapiens) (UniProt P18507+P28472+P34903); assay: Agonist activity at human recombinant GABAA alpha-3-beta-3-gamma-2 receptor expressed in Xenopus oocytes at 1 to 10 uM by patch clamp technique; format: functional, cell-based; conditions: Oocyte
[3] = target: T1, GABA A receptor alpha-4/beta-3/gamma-2; assay: Displacement of [3H]flunitrazepam from human recombinant GABAA alpha-4-beta-3-gamma-2 receptor expressed in HEK cells by liquid scintillation counting; format: cell-based, HEK293
[4] = target: GABA-A receptor; alpha-1/beta-3/gamma-2 (Homo sapiens) (UniProt P14867+P18507+P28472); assay: Agonist activity at human recombinant GABAA alpha-1-beta-3-gamma-2 receptor expressed in Xenopus oocytes at 1 to 10 uM by patch clamp technique; format: functional, cell-based; conditions: Oocyte
[5] = target: GABA-A receptor; alpha-5/beta-3/gamma-2 (Homo sapiens) (UniProt P18507+P28472+P31644); assay: Agonist activity at human recombinant GABAA alpha-5-beta-3-gamma-2 receptor expressed in Xenopus oocytes at 1 to 10 uM by patch clamp technique; format: functional, cell-based; conditions: Oocyte
[6] = target: GABA-A receptor; alpha-2/beta-3/gamma-2 (Homo sapiens) (UniProt P18507+P28472+P47869); assay: Agonist activity at human recombinant GABAA alpha-2-beta-3-gamma-2 receptor expressed in Xenopus oocytes at 1 to 10 uM by patch clamp technique; format: functional, cell-based; conditions: Oocyte
[7] = target: T2, GABA-A receptor; alpha-1/beta-3/gamma-2 (Homo sapiens, UniProt P14867+P18507+P28472); assay: Displacement of [3H]flunitrazepam from human recombinant GABAA alpha-1-beta-3-gamma-2 receptor expressed in HEK cells by liquid scintillation counting; format: cell-based, HEK293
T2 sequence (P14867 whole entry): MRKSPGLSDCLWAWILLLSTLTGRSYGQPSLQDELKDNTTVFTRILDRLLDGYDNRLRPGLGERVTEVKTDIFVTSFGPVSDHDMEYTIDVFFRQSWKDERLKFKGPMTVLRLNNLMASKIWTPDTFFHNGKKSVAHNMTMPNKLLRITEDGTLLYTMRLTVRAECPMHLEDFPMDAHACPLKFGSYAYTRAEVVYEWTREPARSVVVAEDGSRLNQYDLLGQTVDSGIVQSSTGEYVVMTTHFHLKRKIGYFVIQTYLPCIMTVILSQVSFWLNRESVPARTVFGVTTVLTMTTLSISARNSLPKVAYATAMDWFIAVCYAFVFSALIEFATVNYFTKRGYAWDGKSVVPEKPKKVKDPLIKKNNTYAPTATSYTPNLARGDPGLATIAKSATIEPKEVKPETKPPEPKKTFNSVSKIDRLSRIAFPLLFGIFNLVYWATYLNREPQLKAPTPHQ
T2 sequence (P18507 whole entry): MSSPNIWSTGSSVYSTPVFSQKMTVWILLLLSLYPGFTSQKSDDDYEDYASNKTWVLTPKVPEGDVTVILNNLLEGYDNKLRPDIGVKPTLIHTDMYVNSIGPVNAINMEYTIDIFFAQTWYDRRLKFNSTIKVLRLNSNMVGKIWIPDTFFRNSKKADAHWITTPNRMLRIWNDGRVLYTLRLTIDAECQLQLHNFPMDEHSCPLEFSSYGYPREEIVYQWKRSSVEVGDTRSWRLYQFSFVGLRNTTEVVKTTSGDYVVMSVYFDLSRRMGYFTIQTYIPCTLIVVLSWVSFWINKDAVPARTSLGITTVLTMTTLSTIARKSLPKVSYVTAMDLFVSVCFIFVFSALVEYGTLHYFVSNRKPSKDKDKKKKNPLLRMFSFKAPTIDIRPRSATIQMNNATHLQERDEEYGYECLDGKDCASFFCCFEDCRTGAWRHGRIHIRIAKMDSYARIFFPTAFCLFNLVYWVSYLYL
T2 sequence (P28472 whole entry): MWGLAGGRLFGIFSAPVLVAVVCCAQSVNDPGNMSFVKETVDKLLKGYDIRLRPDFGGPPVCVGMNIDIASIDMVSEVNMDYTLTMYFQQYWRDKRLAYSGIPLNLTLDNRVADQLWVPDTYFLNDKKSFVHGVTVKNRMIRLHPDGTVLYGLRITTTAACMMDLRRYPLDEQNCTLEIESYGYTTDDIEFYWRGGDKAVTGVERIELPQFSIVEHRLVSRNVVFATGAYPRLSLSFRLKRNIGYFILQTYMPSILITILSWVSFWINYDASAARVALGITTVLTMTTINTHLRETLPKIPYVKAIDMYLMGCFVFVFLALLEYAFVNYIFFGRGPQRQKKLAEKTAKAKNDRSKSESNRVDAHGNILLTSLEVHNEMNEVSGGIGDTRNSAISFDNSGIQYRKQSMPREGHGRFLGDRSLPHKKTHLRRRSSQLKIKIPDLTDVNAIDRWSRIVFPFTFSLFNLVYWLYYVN

[8] = target: T3, GABA-A receptor; alpha-2/beta-3/gamma-2 (Homo sapiens, UniProt P18507+P28472+P47869); assay: Displacement of [3H]flunitrazepam from human recombinant GABAA alpha-2-beta-3-gamma-2 receptor expressed in HEK cells by liquid scintillation counting; format: cell-based, HEK293
T3 sequence (P18507 whole entry): T2 sequence (P18507 whole entry)
T3 sequence (P28472 whole entry): T2 sequence (P28472 whole entry)
T3 sequence (P47869 whole entry): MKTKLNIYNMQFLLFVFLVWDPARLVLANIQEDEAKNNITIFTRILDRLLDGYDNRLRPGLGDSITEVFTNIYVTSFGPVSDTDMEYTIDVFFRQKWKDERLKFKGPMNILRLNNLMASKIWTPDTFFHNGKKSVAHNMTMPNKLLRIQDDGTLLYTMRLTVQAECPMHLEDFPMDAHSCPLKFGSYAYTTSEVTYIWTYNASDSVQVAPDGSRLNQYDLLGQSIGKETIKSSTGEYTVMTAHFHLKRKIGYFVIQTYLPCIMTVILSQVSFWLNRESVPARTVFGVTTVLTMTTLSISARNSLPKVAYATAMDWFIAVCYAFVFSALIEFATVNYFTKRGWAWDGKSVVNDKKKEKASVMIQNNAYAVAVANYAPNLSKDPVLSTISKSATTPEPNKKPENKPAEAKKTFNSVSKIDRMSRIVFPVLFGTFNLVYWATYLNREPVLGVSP

[9] = target: T4, GABA-A receptor; alpha-5/beta-3/gamma-2 (Homo sapiens, UniProt P18507+P28472+P31644); assay: Displacement of [3H]flunitrazepam from human recombinant GABAA alpha-5-beta-3-gamma-2 receptor expressed in HEK cells by liquid scintillation counting; format: cell-based, HEK293
T4 sequence (P18507 whole entry): T2 sequence (P18507 whole entry)
T4 sequence (P28472 whole entry): T2 sequence (P28472 whole entry)
T4 sequence (P31644 whole entry): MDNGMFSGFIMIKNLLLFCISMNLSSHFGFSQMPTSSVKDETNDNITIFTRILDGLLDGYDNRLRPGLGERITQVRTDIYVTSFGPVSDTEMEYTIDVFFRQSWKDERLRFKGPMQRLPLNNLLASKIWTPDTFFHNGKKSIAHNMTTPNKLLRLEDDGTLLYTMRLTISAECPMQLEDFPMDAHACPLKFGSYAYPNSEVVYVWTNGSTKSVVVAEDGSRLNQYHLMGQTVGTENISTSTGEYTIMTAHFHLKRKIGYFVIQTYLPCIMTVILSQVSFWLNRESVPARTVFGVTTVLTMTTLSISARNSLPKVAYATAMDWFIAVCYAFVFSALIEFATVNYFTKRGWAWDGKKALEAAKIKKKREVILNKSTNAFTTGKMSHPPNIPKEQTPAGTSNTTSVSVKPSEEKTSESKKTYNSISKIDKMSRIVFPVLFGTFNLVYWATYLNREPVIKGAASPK

[10] = target: T5, GABA-A receptor; alpha-3/beta-3/gamma-2 (Homo sapiens, UniProt P18507+P28472+P34903); assay: Displacement of [3H]flunitrazepam from human recombinant GABAA alpha-3-beta-3-gamma-2 receptor expressed in HEK cells by liquid scintillation counting; format: cell-based, HEK293
T5 sequence (P18507 whole entry): T2 sequence (P18507 whole entry)
T5 sequence (P28472 whole entry): T2 sequence (P28472 whole entry)
T5 sequence (P34903 whole entry): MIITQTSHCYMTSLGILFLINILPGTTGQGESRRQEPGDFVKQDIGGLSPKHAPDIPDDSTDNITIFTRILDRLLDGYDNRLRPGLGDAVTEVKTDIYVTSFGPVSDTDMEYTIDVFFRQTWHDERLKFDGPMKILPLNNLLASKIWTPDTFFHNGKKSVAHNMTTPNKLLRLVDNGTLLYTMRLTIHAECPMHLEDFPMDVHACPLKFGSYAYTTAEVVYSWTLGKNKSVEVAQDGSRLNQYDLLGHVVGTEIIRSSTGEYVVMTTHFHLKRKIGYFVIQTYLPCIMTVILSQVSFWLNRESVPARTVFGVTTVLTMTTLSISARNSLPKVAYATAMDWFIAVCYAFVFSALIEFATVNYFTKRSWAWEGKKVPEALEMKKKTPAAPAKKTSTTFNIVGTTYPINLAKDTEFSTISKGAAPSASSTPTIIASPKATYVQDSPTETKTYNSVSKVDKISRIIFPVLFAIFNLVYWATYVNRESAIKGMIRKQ

[11] = target: GABA-A receptor; alpha-6/beta-3/gamma-2 (Homo sapiens, UniProt P18507+P28472+Q16445); assay: Displacement of [3H]flunitrazepam from human recombinant GABAA alpha-6-beta-3-gamma-2 receptor expressed in HEK cells by liquid scintillation counting; format: cell-based, HEK293
GABA-A receptor; alpha-6/beta-3/gamma-2, sequence (Q16445 whole entry, one chain of several): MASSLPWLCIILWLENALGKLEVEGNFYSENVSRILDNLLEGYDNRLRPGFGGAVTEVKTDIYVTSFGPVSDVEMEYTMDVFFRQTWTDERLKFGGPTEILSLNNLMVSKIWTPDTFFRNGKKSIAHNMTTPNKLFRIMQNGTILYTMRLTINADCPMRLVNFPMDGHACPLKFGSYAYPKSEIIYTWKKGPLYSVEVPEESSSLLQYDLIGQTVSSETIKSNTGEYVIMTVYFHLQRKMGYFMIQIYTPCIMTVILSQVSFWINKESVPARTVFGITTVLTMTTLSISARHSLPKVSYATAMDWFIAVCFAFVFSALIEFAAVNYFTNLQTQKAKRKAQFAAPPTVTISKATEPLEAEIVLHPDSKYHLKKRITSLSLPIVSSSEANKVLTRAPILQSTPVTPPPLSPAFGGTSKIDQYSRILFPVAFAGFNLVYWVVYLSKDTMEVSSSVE

T1 sequence (P48169 whole entry, one chain of several): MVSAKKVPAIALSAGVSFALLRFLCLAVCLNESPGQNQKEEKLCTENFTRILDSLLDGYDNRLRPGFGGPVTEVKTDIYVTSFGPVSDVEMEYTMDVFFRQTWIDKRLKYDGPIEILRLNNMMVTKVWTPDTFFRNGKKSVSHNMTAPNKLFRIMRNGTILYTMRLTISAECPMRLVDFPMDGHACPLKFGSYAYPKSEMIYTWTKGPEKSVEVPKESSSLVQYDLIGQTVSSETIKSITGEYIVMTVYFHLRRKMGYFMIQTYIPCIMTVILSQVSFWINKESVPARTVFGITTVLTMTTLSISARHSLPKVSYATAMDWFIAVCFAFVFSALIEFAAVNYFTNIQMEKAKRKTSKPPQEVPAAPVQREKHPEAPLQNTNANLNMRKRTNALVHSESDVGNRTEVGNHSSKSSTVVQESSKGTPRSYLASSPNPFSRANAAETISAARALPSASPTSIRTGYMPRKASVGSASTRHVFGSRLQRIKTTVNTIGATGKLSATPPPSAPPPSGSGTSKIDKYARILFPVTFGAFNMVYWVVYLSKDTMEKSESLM

Q: Which results are given for `CC(C)(C)OC(=O)c1cc2c3ccccc3nc-2c[nH]1`?
A: Activity [1]: 107%; Activity [2]: 108%; Ki ([3]; read-out: Ki): 1000 nM; Activity [4]: 96%; Activity [5]: 88%; Activity [6]: 99%

Q: How did the Activity [2] turn out when `CCOC(=O)c1ncn2c1CN(C)C(=O)c1cc(F)ccc1-2` was run?
A: The Activity was 118%.

Q: What about the Activity [4] of the same compound?
A: Its Activity is 99%.

Q: What about the Activity [5] of the same compound?
A: The Activity was 96%.

Q: What does the source list for `O=C(OCC(F)(F)F)c1cc2c(cn1)[nH]c1ccccc12`?
A: Ki [7]: 3 nM; Ki [8]: 24.5 nM; Ki ([3]; read-out: Ki): > 500 nM; Ki [9]: 126 nM; Ki [10]: 41.7 nM; Ki [11]: > 2000 nM

Q: How did the Ki [7] turn out when `CCC(C)OC(=O)c1cc2c(cn1)[nH]c1ccccc12` (stereo not given) was run?
A: The Ki was 18 nM.

Q: And the Ki [8]?
A: The Ki was 60 nM.

Q: What about the Ki ([3]; hek293) of the same compound?
A: The Ki was “Not Active”.

Q: What about the Ki [9] of the same compound?
A: The Ki was 216 nM.

Q: And the Ki [10]?
A: The Ki was 116 nM.

Q: What about the Ki [11] of the same compound?
A: The Ki was over 2000 nM.

Q: How did the Ki [7] turn out when `CC(C)(C)OC(=O)c1cc2c(cn1)[nH]c1ccc(C#Cc3ccc4[nH]c5cnc(C(=O)OC(C)(C)C)cc5c4c3)cc12` was run?
A: The Ki was 30 nM.

Q: What about the Ki [8] of the same compound?
A: The Ki was 124 nM.

Q: And the Ki ([3]; read-out: Ki)?
A: Its Ki is over 300 nM.

Q: And the Ki [9]?
A: Its Ki is over 300 nM.

Q: And the Ki [10]?
A: The Ki was 100 nM.

Q: And the Ki [11]?
A: The Ki was over 4000 nM.

Q: `CCOC(=O)c1ncc2[nH]c3cccc(OC(C)C)c3c2c1C` was tested. Which Activity [5] did it give?
A: The Activity was 96%.

Q: Which results are given for `C[Si](C)(C)C#Cc1ccc2[nH]c3cnc(C(=O)OCC(F)(F)F)cc3c2c1`?
A: Ki [7]: 17 nM; Ki [8]: 59 nM; Ki ([3]; read-out: Ki): 200 nM; Ki [9]: 1440 nM; Ki [10]: 88 nM; Ki [11]: > 3000 nM

Q: Which results are given for `CCCC(=O)c1cc2c(cn1)[nH]c1ccc(F)cc12`?
A: Ki [7]: 3.7 nM; Ki [8]: 27 nM; Ki ([3]; hek293): Not Active; Ki [9]: 254 nM; Ki [10]: 40 nM; Ki [11]: > 2500 nM
